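Method: 48-hour compound exposure of cells in 96-well plates, five concentrations, linear interpolation of endpoints. Abbreviation: GI50, concentration required for 50% inhibition of growth. TGI: total growth inhibition.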
Assays:
Experiment in all cases: DTP human tumour cell line panel, 48 h
A498 renal = tested on: A498 renal
EKVX NSCLC = tested on: EKVX NSCLC
HL-60(TB) leukemia = tested on: HL-60(TB) leukemia
HOP-92 NSCLC = tested on: HOP-92 NSCLC
SN12C renal = tested on: SN12C renal
SW-620 colon = tested on: SW-620 colon
TK-10 renal = tested on: TK-10 renal
SK-OV-3 ovarian = tested on: SK-OV-3 ovarian
NCI/ADR-RES ovarian = tested on: NCI/ADR-RES ovarian
T-47D breast = tested on: T-47D breast

Structure (SMILES) | TGI (A498 renal) [µM] | TGI (EKVX NSCLC) [µM] | TGI (HL-60(TB) leukemia) [µM] | TGI (HOP-92 NSCLC) [µM] | TGI (SN12C renal) [µM] | TGI (SW-620 colon) [µM] | TGI (TK-10 renal) [µM] | TGI (SK-OV-3 ovarian) [µM] | GI50 (A498 renal) [nM] | GI50 (EKVX NSCLC) [µM] | GI50 (HL-60(TB) leukemia) [nM] | GI50 (NCI/ADR-RES ovarian) [µM] | TGI (NCI/ADR-RES ovarian) [µM] | GI50 (SK-OV-3 ovarian) [nM] | GI50 (SN12C renal) [nM] | GI50 (SW-620 colon) [nM] | GI50 (T-47D breast) [µM] | TGI (T-47D breast) [µM] | GI50 (TK-10 renal) [nM] | GI50 (HOP-92 NSCLC) [nM]
Cc1ccc(S(=O)(=O)OC[C@@H]2CO2)cc1 | > 100 | > 100 | > 100 | > 100 | > 100 | > 100 | > 100 |  |  |  |  |  |  |  |  |  |  |  |  | 
NC1=NCCC1(c1ccccc1)c1ccccn1 (stereo not drawn) | > 100 | > 100 | > 100 | > 100 | > 100 | > 100 | > 100 | > 100 |  |  |  |  |  |  |  |  |  |  |  | 
COC(=O)c1ccccc1NC(=O)C(=O)Cc1nc2c3c(ccc2[nH]c1=O)C(=O)c1ccccc1C3=O | > 100 | 82.1 |  | 92.9 | > 100 | 55.7 | 96.4 | > 100 |  |  |  |  |  |  |  |  |  |  |  | 
COc1cc2ccnc([C@@H](OC(=O)c3ccccc3)c3ccc(OC)c(OC)c3OC)c2cc1OC | > 100 | > 100 | > 100 | > 100 | > 100 | > 100 | > 100 | > 100 |  |  |  |  |  |  |  |  |  |  |  | 
O=C(CCc1nc(=S)[nH][nH]1)Nc1ccc(Cl)c(Cl)c1 | > 100 | > 100 | > 100 | > 100 | > 100 | > 100 | > 100 | > 100 |  |  |  |  |  |  |  |  |  |  |  | 
Cc1nc2c(ccc3ncccc32)[nH]1 |  | > 100 | > 100 | > 100 | > 100 | > 100 | > 100 | > 100 |  |  |  |  |  |  |  |  |  |  |  | 
COc1cc2c(c(OC)c1OC)-c1ccc(NNC(N)=S)c(=O)cc1[C@@H](NC(C)=O)CC2 | > 21.1 | > 100 |  |  | > 100 | > 100 | > 100 | > 100 | 930 | 3.67 | 226 | 19.4 | > 100 | 817 | 881 | 365 | > 100 | > 100 | > 26000 | 
Cc1c(C(=O)C/C(=N/NC(=O)c2ccccc2O)C(=O)Nc2ccccc2C(C)C)[n+](=O)c2ccccc2n1[O-] | > 100 | > 100 | 38.3 |  | > 100 | > 100 | > 100 | > 100 |  |  |  |  |  |  |  |  |  |  |  | 
CCCCCCCCCCCC(=O)OCCOCCOCCOCCOCCOCc1ccccc1 | > 100 | > 100 | > 100 | > 100 | > 100 | > 100 | > 100 | > 100 |  |  |  |  |  |  |  |  |  |  |  | 
CC1(C)C(=O)/C=C\C(=O)C(C)(C)C2=CC=C(O2)C(C)(C)C(=O)/C=C\C(=O)C(C)(C)C2=CC=C1O2 | > 100 | > 100 | > 100 | > 100 | > 100 | > 100 | > 100 | > 100 |  |  |  |  |  |  |  |  |  |  |  | 
CCOC(=O)C(C)(C)Oc1ccc2c(-c3ccccc3)cc(=O)oc2c1 | > 100 | > 100 | 63.8 |  | > 100 | > 100 | > 100 |  |  |  |  |  |  |  |  |  |  |  |  | 
CCOC(=O)CCC1(C(=O)OCC)CCCCC1=O (stereo not drawn) | > 100 | > 100 | > 100 | > 100 |  | > 100 | > 100 | > 100 |  |  |  |  |  |  |  |  |  |  |  | 
CCCC1C(=O)CCc2c(OC)ccc(OC)c21 (stereo not drawn) | > 100 | > 100 | > 100 |  | > 100 | > 100 | > 100 | > 100 |  |  |  |  |  |  |  |  |  |  |  | 
Cc1ccc(NC(=O)Nc2ccc(-c3cccnc3)cc2N2CCC(CO)CC2)cc1 |  | > 100 | 7.38 | 6.42 | > 100 | > 100 | 5.54 | > 100 |  | 3.42 | 2640 | 3.62 | > 100 | 3930 | 4490 | 2520 | 3.9 | > 100 | 2040 | 2500
CN(C)N=Nc1ccc(C(N)=O)cc1 | > 100 | > 100 | > 100 | > 100 | > 100 | > 100 | > 100 | > 100 |  |  |  |  |  |  |  |  |  |  |  | 
CN(C)C(=S)N=C(Nc1ccccc1)Nc1ccccc1 | > 100 | > 100 | > 100 | > 100 | > 100 | > 100 | > 100 | > 100 |  |  |  |  |  |  |  |  |  |  |  | 
CCOC1Oc2ccccc2C(=O)/C1=C/Nc1ccc(C(C)=O)cc1 (stereo not drawn) |  | 93.6 |  | > 100 | 47.8 | 72.6 |  | > 100 |  | 25.4 |  | 15.6 | 38.6 | 44400 | 19400 | 26700 | 62.7 | > 100 |  | 25600
OCC1=CC(NC2CC(CO)C(O)C(O)C2O)C(O)C(O)C1O (stereo not drawn) |  | > 100 |  |  | > 100 | > 100 | > 100 | > 100 |  |  |  |  |  |  |  |  |  |  |  | 
COc1cc2cc(OC)c3cc4c(cc3c2c(OC)c1OC)OCO4 | 97.5 | > 92 | 45.7 | > 93.3 | > 100 | 43.8 | > 84.4 | > 100 |  |  |  |  |  |  |  |  |  |  |  | 
C1=C2/CC[C@H](Sc3ccccc3)C2C2(CCCCC/1)OCCO2 (stereo partly drawn) |  | > 100 | > 100 | 29.6 | > 100 | > 100 | > 100 |  |  |  |  |  |  |  |  |  |  |  |  | 
CCN(CC)CCSc1c2ccccc2nc2cc(NCC(=O)Nc3ccccc3-c3ccccc3NC(=O)CNc3ccc4c(SCCN(CC)CC)c5ccccc5nc4c3)ccc12 | > 100 | > 100 | 49.3 | > 100 | > 100 | > 100 | > 100 | > 100 |  |  |  |  |  |  |  |  |  |  |  | 
O=C(O)CCC(NC(=O)c1ccc(Nc2nc3ccccc3nc2-c2cccs2)cc1)C(=O)O (stereo not drawn) | > 100 | > 100 | > 100 | > 100 | > 100 | > 100 | > 100 | > 100 |  |  |  |  |  |  |  |  |  |  |  | 
COc1cc2c(cc1OCCCCN1CCN(CC(=O)Nc3ccc(Cl)cc3C(=O)c3ccccc3Cl)CC1)N=CC1CCCN1C2=O (stereo not drawn) | 0.364 | 1.07 |  | 0.298 | 1.14 | 0.726 | 0.841 | 1.22 | 194 | 0.375 | 273 |  |  | 380 | 297 | 238 |  |  | 311 | 98.2

Reference: PubChem BioAssay (NCI)
